# Test system: Phosphorylation of STAT6 in human A549 cells
# Assay: Phosphorylated STAT6 (pSTAT6) flow cytometry assay in human A549 cells
# Type: cell-based
# Conditions: listed as I-390, read-out: STAT6 IL4 pSTAT6 assay in A549 cells: Average IC50
# Source text: Example 3. Phosphorylated STAT6 (pSTAT6) Flow Cytometry Assay in Human A549 Cells
# Phosphorylation of STAT6 in human A549 cells was quantitatively measured using flow cytometry technology.
row,IC50,Structure (SMILES)
1,< 100 nM,"COc1cc(F)cnc1N1CCN(C(=O)c2cc3c([C@@H]4CCCN4C)cc(C4=CCCN(C(=O)CCn5ccnn5)C4)c(F)c3[nH]2)CC1 (single isomer, unassigned) [Example I-813]"

# Same assay, conditions: listed as I-391, read-out: STAT6 IL4 pSTAT6 assay in A549 cells: Average IC50
row,IC50,Structure (SMILES)
1,< 100 nM,"COc1cc(F)cnc1N1CCN(C(=O)c2cc3c([C@H]4CCCN4C)cc(C4=CCCN(C(=O)CCn5ccnn5)C4)c(F)c3[nH]2)CC1 (single isomer, unassigned) [Example I-814]"

# Same assay, conditions: read-out: STAT6 IL4 pSTAT6 assay in A549 cells: Average IC50
row,Structure (SMILES),IC50
1,COc1c(-c2cc(C3=CCCN(C(=O)CCn4ccnn4)C3)c(F)c3[nH]c(C(=O)N4CCN(c5ncccc5OC5CC5)CC4)cc23)cnc2ccccc12 [Example I-447],< 100 nM
2,CCC1=C(c2cc(C3=CCCN(C(=O)CCn4ccnn4)C3)c(F)c3[nH]c(C(=O)N4CCN(c5ncc(F)cc5OC)CC4)cc23)CNCC1 [Example I-743],< 100 nM
3,COc1ccccc1-c1cc(C2=CCCN(C(=O)CCn3ccnn3)C2)c(F)c2[nH]c(C(=O)N3CCN(c4c(F)cccc4OC4CC4)CC3)cc12 [Example I-424],< 100 nM
4,COc1cccnc1N1CCN(C(=O)c2cc3c(-c4cccc5ccccc45)cc(C4=CCCN(C(=O)CCn5ccnn5)C4)c(F)c3[nH]2)CC1 [Example I-397],> 100000 nM
5,COc1ccccc1-c1cc(C2=CCCN(C(=O)CCn3ccnn3)C2)c(F)c2[nH]c(C(=O)N3CCN(c4ncc(C5CC5)cc4OC4CC4)CC3)cc12 [Example I-413],100 to 1000 nM
6,CCn1nccc1-c1cc(C2=CCCN(C(=O)CCn3ccnn3)C2)c(F)c2[nH]c(C(=O)N3CCN(c4ncccc4OC)CC3)cc12 [Example I-582],< 100 nM
7,CCc1ccncc1-c1cc(C2=CCCN(C(=O)CC(=O)O)C2)c(F)c2[nH]c(C(=O)N3CCN(c4ncc(F)cc4OC)CC3)cc12 [Example I-786],< 100 nM
8,CCn1c(C2=CCCN(C(=O)CCn3ccnn3)C2)cc2cc(C(=O)N3CCN(c4ncc(F)cc4OC)CC3)cc(-c3ccccc3OC)c21 [Example I-734],< 100 nM
9,CCC1=C(c2cc(C3=CCCN(C(=O)CCn4ccnn4)C3)c(F)c3[nH]c(C(=O)N4CCN(c5ncc(F)cc5OC)CC4)cc23)CN(C)CC1 [Example I-730],< 100 nM
10,CCOc1cccnc1N1CCN(C(=O)c2cc3c(-c4cnccc4OC)cc(C4=CCCN(C(=O)CCn5ccnn5)C4)c(F)c3[nH]2)CC1 [Example I-564],< 100 nM
11,COc1cc(F)cnc1N1CCN(C(=O)c2cc3c(-c4cccnc4C4CC4)cc(C4=CCCN(C(=O)CCn5ccnn5)C4)c(F)c3[nH]2)CC1 [Example I-628],< 100 nM
12,COc1cc(F)c(C)nc1N1CCN(C(=O)c2cc3c(-c4cnc(C)cc4C(C)C)cc(C4=CCCN(C(=O)CCn5ccnn5)C4)c(F)c3[nH]2)CC1 [Example I-740],< 100 nM
13,COc1ccncc1-c1cc(C2=CCCN(C(=O)CCn3ccnn3)C2)c(F)c2[nH]c(C(=O)N3CCN(c4ncc(C(C)C)cc4OC)CC3)cc12 [Example I-454],< 100 nM
14,"COc1cc(F)cnc1N1CCN(C(=O)c2cc3c([C@H]4CCCN4C)cc(C4=CCCN(C(=O)CCn5ccnn5)C4)c(F)c3[nH]2)CC1 (single isomer, unassigned) [Example I-814]",> 100000 nM
15,"COc1cc(F)cnc1N1CCN(C(=O)c2cc3c([C@@H]4CCCN4C)cc(C4=CCCN(C(=O)CCn5ccnn5)C4)c(F)c3[nH]2)CC1 (single isomer, unassigned) [Example I-813]",> 100000 nM
16,COc1ccccc1-c1cc(C2=CCCN(C(=O)CCn3ccnn3)C2)c(F)c2[nH]c(C(=O)N3Cc4c(C)nn(C)c4C3)cc12 [Example I-509],< 100 nM
17,COc1cc(C)ncc1-c1cc(C2=CCCN(C(=O)CCn3ccnn3)C2)c(F)c2[nH]c(C(=O)N3CCN(c4ncccc4OC)CC3)cc12 [Example I-570],< 100 nM
18,COc1ccccc1-c1cc(C2=CCCN(C(=O)CCn3ccnn3)C2)c(F)c2[nH]c(C(=O)N3CCN(c4nc(OC(F)F)ccc4OC)CC3)cc12 [Example I-490],> 100000 nM
19,CCc1ccc(-c2cc(C(=O)N3Cc4cnn(CC)c4C3)cc3cc(C4=CCCN(C(=O)CC(=O)O)C4)n(CC(C)C)c23)c(C)n1 [Example I-801],> 100000 nM
20,COc1ccncc1-c1cc(C2=CCCN(C(=O)CCn3ccnn3)C2)c(F)c2[nH]c(C(=O)N3CCN(c4ncc(C(F)(F)F)cc4OC)CC3)cc12 [Example I-445],< 100 nM
21,COc1ccncc1-c1cc(C2CN(C(=O)CCn3ccnn3)CC(F)(F)C2)c(F)c2[nH]c(C(=O)N3CCN(c4ncc(F)cc4OC)CC3)cc12 (centres unmarked) [Example I-513],< 100 nM
22,COC(=O)CC(=O)N1CCC=C(c2cc3cc(C(=O)N4Cc5cnn(C)c5C4)cc(-c4cccnc4OC)c3n2CC2CC2)C1 [Example I-795],> 100000 nM
23,COc1cc(F)cnc1N1CCN(C(=O)c2cc3c(C4CC4)cc(C4=CCCN(C(=O)CCn5ccnn5)C4)c(F)c3[nH]2)CC1 [Example I-694],> 100000 nM
24,COc1ccncc1-c1cc(C2=CCCN(C(C)=O)C2)c(F)c2[nH]c(C(=O)N3Cc4cnn(C)c4C3)cc12 [Example I-701],10000 to 100000 nM
25,CCc1ccncc1-c1cc(C2=CCCN(C(=O)C(=O)O)C2)c(F)c2[nH]c(C(=O)N3CCN(c4ncc(F)cc4OC)CC3)cc12 [Example I-790],< 100 nM
26,"COc1cccnc1N1CCN(C(=O)c2cc3c(-n4ccccc4=O)cc(C4=CCCN(C(=O)CCn5ccnn5)C4)c(F)c3[nH]2)CC1 [Example I-807, 1-(6-(1-(3-(1H-1,2,3-triazol-1-yl)propanoyl)-1,2,5,6-tetrahydropyridin-3-yl)-7-fluoro-2-(4-(3-methoxypyridin-2-yl)piperazine-1-carbonyl)-1H-indol-4-yl)pyridin-2(1H)-one]",< 100 nM
27,COCCOc1cccnc1N1CCN(C(=O)c2cc3c(-c4ccccc4OC)cc(C4=CCCN(C(=O)CCn5ccnn5)C4)c(F)c3[nH]2)CC1 [Example I-330],< 100 nM

# More lines, now with the values ahead:
row,IC50,Structure (SMILES)
1,< 100 nM,COc1cc(F)cnc1N1CCN(C(=O)c2cc3c(-c4ccc(C#N)c(C)c4)cc(C4=CCCN(C(=O)CCn5ccnn5)C4)c(F)c3[nH]2)CC1 [Example I-1139]
2,< 100 nM,COc1ccccc1-c1cc(C2=CCCN(C(=O)CCn3ccnn3)C2)c(F)c2[nH]c(C(=O)N3CCN(c4cnc5nccnc5c4C)CC3)cc12 [Example I-944]
3,< 100 nM,COc1ccccc1-c1cc(C2=CCCN(C(=O)CCn3ccnn3)C2)c(F)c2[nH]c(C(=O)N3CCN(Cc4c(C)nn(C)c4C)CC3)cc12 [Example I-1182]
4,100 to 1000 nM,CN(C)C(=O)c1cc2ccc(C3=CCCN(C(=O)CCc4nncs4)C3)cc2[nH]1 [Example I-828]
5,< 100 nM,CN(C)C(=O)c1cc2cc(C3=CCCN(C(=O)CCn4ccnn4)C3)cc(-c3ccc(F)cc3O)c2o1 [Example I-1074]
6,< 100 nM,COc1cc(F)cnc1N1CCN(C(=O)c2cc3c(-c4ccc(C(F)F)cc4)cc(C4=CCCN(C(=O)CCn5ccnn5)C4)c(F)c3[nH]2)CC1 [Example I-1160]
7,< 100 nM,COc1cc(F)cnc1N1CCN(C(=O)c2cc3c(-c4ccc(=O)n(Cc5ccccc5)c4)cc(C4=CCCN(C(=O)CCn5ccnn5)C4)c(F)c3[nH]2)CC1 [Example I-1136]
8,< 100 nM,COc1ccccc1-c1cc(C2=CCCN(C(=O)CCn3ccnn3)C2)c(F)c2[nH]c(C(=O)N3CCN(c4ncn5c4CCCC5)CC3)cc12 [Example I-1034]
9,< 100 nM,Cc1c[nH]c2ncc(-c3cc(C4=CCCN(C(=O)CCn5ccnn5)C4)c(F)c4[nH]c(C(=O)N(C)C)cc34)cc12 [Example I-1101]
10,100 to 1000 nM,CN(C)C(=O)c1cc2cc(C3=CCCN(C(=O)CCc4nccs4)C3)ccc2o1 [Example I-815]
11,< 100 nM,CN(C)C(=O)c1cc2c(-c3cc4cc[nH]c4cc3Cl)cc(C3=CCCN(C(=O)CCn4ccnn4)C3)cc2[nH]1 [Example I-1066]
12,< 100 nM,COc1ccccc1-c1cc(C2CCCN(C(=O)CCn3ccnn3)C2)c(F)c2[nH]c(C(=O)N(C)C)cc12 (centres unmarked) [Example I-1193]
13,< 100 nM,COc1cc(-c2cc(C3=CCCN(C(=O)CCn4ccnn4)C3)cc3cc(C(=O)N(C)C)oc23)cc(OC)c1OC [Example I-1088]
14,< 100 nM,CCOCc1cc(-c2cc(C3=CCCN(C(=O)CCn4ccnn4)C3)c(F)c3[nH]c(C(=O)N4CCN(c5ncc(F)cc5OC)CC4)cc23)ccc1F [Example I-1128]
15,< 100 nM,COc1cc(F)cnc1N1CCN(C(=O)c2cc3c(C4=CCC(N5CCOCC5)CC4)cc(C4=CCCN(C(=O)CCn5ccnn5)C4)c(F)c3[nH]2)CC1 (centres unmarked) [Example I-1153]
16,1000 to 10000 nM,CCc1ccncc1-c1cc(C2=CCCC(C(=O)O)C2)c(F)c2[nH]c(C(=O)N3CCN(c4ncc(F)cc4OC)CC3)cc12 (centres unmarked) [Example I-1205]
17,< 100 nM,COc1cc(N2CCN(C(=O)c3cc4c(-c5ccccc5OC)cc(C5=CCCN(C(=O)CCn6ccnn6)C5)c(F)c4[nH]3)CC2)c2ccnn2c1 [Example I-926]
18,< 100 nM,COc1ccc(C)cc1-c1cc(C2=CCCN(C(=O)C3Cc4ccccc4CN3C=O)C2)cc2cc(C(=O)N(C)C)oc12 (racemic) [Example I-1196]
19,< 100 nM,COc1ccccc1-c1cc(C(=O)N(C)C)cc2cc(C3=CCCN(C(=O)CCn4ccnn4)C3)n(CC3CC3)c12 [Example I-899]
20,100 to 1000 nM,COc1ccccc1-c1cc(C2=CCCN(C(=O)CCn3ccnn3)C2)c(F)c2[nH]c(C(=O)N3CCN(c4cc(C)c(O)c(C)c4)CC3)cc12 [Example I-1032]
21,< 100 nM,COc1cc(F)cnc1N1CCN(C(=O)c2cc3c(-c4ccc(CN5CCOCC5)nc4)cc(C4=CCCN(C(=O)CCn5ccnn5)C4)c(F)c3[nH]2)CC1 [Example I-1137]
22,100 to 1000 nM,CC(=O)N1CCC=C(c2cc(-c3ccccc3N(C)C)c3cc(C(=O)N(C)C)[nH]c3c2F)C1 [Example I-1093]
23,< 100 nM,COc1ccccc1-c1cc(C2=CCCN(C(=O)[C@H]3Cc4ccccc4CN3C=O)C2)cc2cc(C(=O)N(C)C)oc12 [Example I-839]
24,100 to 1000 nM,COc1ccccc1-c1cc(C2=CCCN(C(=O)CCn3ccnn3)C2)c(F)c2[nH]c(C(=O)N3CCN(c4c(O)ccc5ccccc45)CC3)cc12 [Example I-965]
25,< 100 nM,COc1cc(F)cnc1N1CCN(C(=O)c2cc3c(-c4ccc(OC5CCOCC5)cc4)cc(C4=CCCN(C(=O)CCn5ccnn5)C4)c(F)c3[nH]2)CC1 [Example I-1111]
26,100 to 1000 nM,COc1ccccc1-c1cc(C2=CCCN(C(=O)CCn3ccnn3)C2)c(F)c2[nH]c(C(=O)N3CCN(c4ccccc4C(F)(F)F)CC3)cc12 [Example I-968]
27,100 to 1000 nM,COc1ccccc1-c1cc(C2=CCCN(C(=O)CCn3ccnn3)C2)c(F)c2[nH]c(C(=O)N3CCN(c4cc(C)cc5c[nH]nc45)CC3)cc12 [Example I-921]
